Entries after “also recorded” stand apart in the source; their conditions may differ.
What was measured:
[1] = target: T1, METTL16–MAT2A-hp1 mRNA interaction (METTL16 MTD 1–291, FAM-labeled MAT2A-hp1 RNA) (Homo sapiens, UniProt Q86W50); experiment: Fluorescence polarization (FP) assay, disruption of METTL16 binding to FAM-MAT2A-hp1 RNA; settings: for IC50 class in the FP assay (MAT2A-hp1): 50 nM METTL16 MTD, 5 nM FAM-MAT2A-hp1, given as 'inactive'
T1 sequence (Q86W50 1-291): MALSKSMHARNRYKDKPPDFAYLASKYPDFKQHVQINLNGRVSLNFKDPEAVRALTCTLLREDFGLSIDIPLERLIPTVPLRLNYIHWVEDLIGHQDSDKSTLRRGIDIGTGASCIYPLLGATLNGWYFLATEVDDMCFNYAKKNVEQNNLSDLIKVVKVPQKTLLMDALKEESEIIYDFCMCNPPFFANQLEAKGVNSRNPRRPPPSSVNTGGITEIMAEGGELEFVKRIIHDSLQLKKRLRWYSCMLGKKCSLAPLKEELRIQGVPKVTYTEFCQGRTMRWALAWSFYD
Protocol: The binding of METTL16 to the FAM-labeled RNA probe formed a complex that led to a higher FP signal in comparison to that of the unbound RNA probe (Figure 2A). […] The Z-factor of 0.91 indicated the suitability of the assay condition (Figure S2D). […] In both FP assay and EMSA, a final concentration of 50 nM METTL16 and 5 nM FAM-MAT2A-hp was used. The METTL16 MTD (amino acids 1–291) was used in this study unless specifically indicated otherwise.
The FP assay was performed using 384-well black plates (Corning #4514) in a total reaction volume of 20 μL, with the final concentration of protein and RNA being 50 and 5 nM respectively. Compounds were diluted in FP buffer and incubated with protein for 30 min at room temperature, then FAM-MAT2A-hp1 RNA probe was added and the fluorescence polarization was measured using a TECAN Spark plate reader, under the excitation wavelength of 485 nm and the emission wavelength of 535 nm with bandwidth of 20 nm. 1% DMSO was used as the control. The inhibition was calculated with the equation: inhibition = 100%(Control – X)/(Control – Blank); Control: DMSO with protein and FAM-RNA; Blank: DMSO with FAM-RNA; X: compound with protein and FAM-RNA. The IC50 value was further determined using GraphPad Prism 9. […] The polarization was measured under an excitation wavelength of 630 nm and an emission wavelength of 680 nm with a bandwidth of 20 nm.

[2] = target: T2, METTL16 MTD–GGACU-containing RNA interaction (Homo sapiens, UniProt Q86W50); experiment: EMSA with GGACU-containing RNA; settings: 5 nM RNA, 600 nM METTL16 MTD
T2 sequence (Q86W50 1-291): T1 sequence (Q86W50 1-291)
Protocol: METTL16 MTD protein (1–291) was incubated with the indicated compound or DMSO in a buffer containing 20 mM HEPES, pH 7.5, 50 mM NaCl, 0.05% v/v Tween 20, and 0.05 mg/mL BGG at room temperature for 30 min; subsequently, FAM-MAT2A-hp1 RNA probe was added and incubated at room temperature for 10 min, the final of protein and RNA are 50 and 5 nM respectively, and 1% DMSO was used as the control. […] The gel was detected and imaged by Chemi Doc MP (Bio-Rad). […] EMSA for testing compounds with GGAUC-motif containing RNA and METTL16 MTD interaction was performed using the method described above, expecting that the final of METTL16 MTD protein and FAM-labeled-GGACU RNA are 600 nM and 5 nM respectively. EMSA for RNA binding: indicated concentrations of fluorophore-labeled RNA were incubated with indicated concentrations of protein in EMSA buffer for 15 min at room temperature, then loaded to native PAGE gels and imaged with the method described above.

METTL16 (1-291) = target: T3, METTL16 (1-291) (Homo sapiens, UniProt Q86W50); experiment: Covalent binding evaluation by protein LC–MS; settings: 30 μM METTL16 (1-291), 100 μM compound, 30 or 150 min
T3 construct: METTL16 MTD (1–291) was subcloned to pOPINB plasmid; His tag followed by HRV 3C cleavage site (N, cleaved yes); made in house; host or cells: E. coli Rosetta (DE3)
T3 sequence (Q86W50 1-291): T1 sequence (Q86W50 1-291)
Protocol: To evaluate whether the aminothiazolones covalently bind to METTL16, we performed the LC–MS analysis after incubating the protein with aminothiazolones for 30 and 150 min, respectively. In the case of covalent binding, we would expect to observe the formation of covalent adducts, which would accrue over time. […] Besides the LC–MS analysis result, an irreversible inhibition counter screening indicated the reversible inhibitory activity of the aminothiazolones (Figure S8A).
Figure S7. Covalent evaluation of METTL16 inhibitors via LC-MS. (A) Deconvoluted mass spectrum of 30 µM METTL16 (1-291) incubated with 1% DMSO for 30 min (left) and 150 min (right). (B), (C), (D) Deconvoluted […]
(right). Expected Mass for METTL16 (1-291), 33455.7 Da. The observed small mass shift of ~50 Da appeared in both the DMSO control and compound-treated samples was probably formed by the solvent used in the LC-MS.
(1 picture or pasted object on this page, not shown here)
For computational docking analysis of aminothiazolones to the RNA binding site of METTL16 (PDB code: 6B91)2 Schrödinger® Maestro 12.3 was used. […]
Chemical states were generated with the ligand preparation module and METTL16 conformation with the protein preparation module. […] The glide dock module was used and the results were evaluated according to interactions between small molecules and METTL16, small molecule orientations, docking scores and solvent exposure patterns. […]
METTL16 MTD protein was diluted in SEC buffer (20mM pH 7.5, 200 mM NaCl, 0.5 mM TCEP,5% v/v glycerol) to a final concentration of 30 µM, and incubated with DMSO or 100 μM compound (final 1% DMSO) at room temperature. After incubation (30 min or 150 min), the samples were analyzed on an Agilent 1260 II Infinity system equipped with an electrospray ion source in positive mode, run through a Desalting cartridge (AdvanceBio Desalting-RP, 2.1 mm, 12.5mm, Agilent) with a gradient of 5-80% HPLC-grade acetonitrile (+ 0.1% TFA) in HPLC-grade water (+ 0.1% TFA) (flowrate: 0.4 mL/min, runtime: 6 min). […]

[3] = target: T4, methyltransferase activity of METTL16 MTD toward MAT2A-hp1 (Homo sapiens, UniProt Q86W50); experiment: In vitro methylation assay (MTase Glo); type: biochemical; settings: RNA substrate MAT2A-hp1
T4 construct: METTL16 MTD (1–291) was subcloned to pOPINB plasmid; His tag followed by HRV 3C cleavage site (N, cleaved yes); made in house; host or cells: E. coli Rosetta (DE3)
T4 sequence (Q86W50 1-291): T1 sequence (Q86W50 1-291)
Protocol: Next, we evaluated the inhibition of the METTL16 methylation using the MTase Glo assay kit (Promega) measuring the methyltransferase activity based on the formation of the methylation product S-adenosyl homocysteine, which was converted to ADP by the MTase-Glo reagent to trigger a subsequent luciferase reaction (Figure 5E).
The methyltransferase activity of METTL16 MTD was measured using an MTase Glo kit (Promega V7601) following the manufacturer’s instructions. The reaction was carried out in white 384-well plates (Corning #3824), with a total methyltransferase reaction volume of 8 μL, and the final concentrations of METTL16 MTD, MAT2A-hp1, and SAM were 1, 1, and 10 μM, respectively, and 1% of DMSO was used as a control. […] To use SAM at a different final concentration, the concentration of SAM was adjusted accordingly in a 2× substrate solution.

[4] = target: T5, METTL16 MTD–U6 snRNA Δ interaction (Homo sapiens, UniProt Q86W50); experiment: FP assay with Cy5-labeled U6 snRNA Δ; type: binding
T5 construct: METTL16 MTD (1–291) was subcloned to pOPINB plasmid; His tag followed by HRV 3C cleavage site (N, cleaved yes); made in house; host or cells: E. coli Rosetta (DE3)
T5 sequence (Q86W50 1-291): T1 sequence (Q86W50 1-291)

MDA-MB-231 cells = experiment: Colony formation assay; type: cell-based, human; settings: 7 days, three tested concentrations
Protocol: MDA-MB-231 cells were collected and seeded with the density of 1000 cells per well into 24-well plates; after being cultured overnight, the medium was exchanged and treated with indicated compounds or DMSO (0.5%) as the control. The medium change and treatment were performed every 3 days. After 7 days, the cell culture medium was discarded, and cells were washed with PBS and fixed with 4% paraformaldehyde solution at room temperature for 15 min; the paraformaldehyde solution was removed, and cells were washed with PBS again to remove the paraformaldehyde. Then cells were stained with 0.1% (w/v) crystal violet. After staining for 15 min, the cells were washed with H2O to remove the extra dye and then photographed.

[5] = target: T6, METTL16 (1-291)–FAM-MAT2A-hp1 RNA (Homo sapiens, UniProt Q86W50); experiment: FP assay after incubating SAM with METTL16; type: binding; settings: SAM incubated with METTL16 before the FP assay
T6 construct: METTL16 MTD (1–291) was subcloned to pOPINB plasmid; His tag followed by HRV 3C cleavage site (N, cleaved yes); made in house; host or cells: E. coli Rosetta (DE3)
T6 sequence (Q86W50 1-291): T1 sequence (Q86W50 1-291)

Compound | IC50 [1] [µM] | IC50 class in the FP assay (MAT2A-hp1) [1] | other results
COc1ccc(S(=O)(=O)NC2=NC(=O)C(=C3C(=O)Nc4ccc(C)cc43)S2)cc1 [Compound 2] | 24.3 ± 5.3 |  | 
COc1ccc(S(=O)(=O)NC2=NC(=O)C(=C3C(=O)Nc4ccc(OC)cc43)S2)cc1 [Compound 3] | 23.8 ± 5.5 |  | 
COc1ccc(S(=O)(=O)NC2=NC(=O)C(=C3C(=O)Nc4ccc([N+](=O)[O-])cc43)S2)cc1 [Compound 4] | 8.2 ± 0.76 |  | 
COc1ccc(S(=O)(=O)NC2=NC(=O)C(=C3C(=O)Nc4ccc(Br)cc43)S2)cc1 [Compound 8] | 12.4 ± 2.8 |  | 
COc1ccc(S(=O)(=O)NC2=NC(=O)C(=C3C(=O)N(c4ccccc4)c4ccccc43)S2)cc1 [Compound 10] |  | inactive | 
COc1ccc(S(=O)(=O)NC2=NC(=O)C(=C3C(=O)Nc4c(F)cccc43)S2)cc1 [Compound 11] | 28.9 ± 5.8 |  | 
COc1ccc(S(=O)(=O)NC2=NC(=O)C(=C3C(=O)Nc4cc(F)ccc43)S2)cc1 [Compound 12] |  | inactive | 
COc1ccc(S(=O)(=O)NC2=NC(=O)C(=C3C(=O)Nc4ccc(F)cc43)S2)cc1 [Compound 13] | 26.9 ± 3.5 |  | 
COc1ccc(S(=O)(=O)NC2=NC(=O)C(=C3C(=O)Nc4c(Cl)cccc43)S2)cc1 [Compound 14] | 57.6 ± 1.3 |  | 
COc1ccc(S(=O)(=O)NC2=NC(=O)C(=C3C(=O)Nc4cc(Cl)ccc43)S2)cc1 [Compound 15] | 26.4 ± 5 |  | 
COc1ccc(S(=O)(=O)NC2=NC(=O)C(=C3C(=O)N(C)c4ccc(F)cc43)S2)cc1 [Compound 16] | 15 ± 1 |  | 
COc1ccc(S(=O)(=O)NC2=NC(=O)C(=C3C(=O)N(C)c4cc(F)ccc43)S2)cc1 [Compound 17] | 22.8 ± 2.3 |  | 
COc1ccc(S(=O)(=O)NC2=NC(=O)C(=Cc3cc4ccccc4[nH]3)S2)cc1 [Compound 18] | 23.2 ± 2.7 |  | 
Cc1ccc(S(=O)(=O)NC2=NC(=O)C(=C3C(=O)Nc4ccc(Cl)cc43)S2)cc1 [Compound 19] | 13.5 ± 1.7 |  | 
O=C1N=C(NS(=O)(=O)c2ccccc2)SC1=C1C(=O)Nc2ccc(Cl)cc21 [Compound 20] | 15.7 ± 1.6 |  | 
O=C1N=C(NS(=O)(=O)c2cccc([N+](=O)[O-])c2)SC1=C1C(=O)Nc2ccc(Cl)cc21 [Compound 22] | 12 ± 2 |  | 
CC(C)(C)c1ccc(S(=O)(=O)NC2=NC(=O)C(=C3C(=O)Nc4ccc(Cl)cc43)S2)cc1 [Compound 23] |  | inactive | 

Compound | IC50 [1] [µM] | IC50 class in the FP assay (MAT2A-hp1) [1] | other results
O=C1N=C(NS(=O)(=O)c2ccc(F)cc2Cl)SC1=C1C(=O)Nc2ccc(Cl)cc21 [Compound 24] | 14 ± 1.5 |  | 
O=C1N=C(NS(=O)(=O)c2ccc(C3CCCCC3)cc2)SC1=C1C(=O)Nc2ccc(Cl)cc21 [Compound 25] |  | inactive | 
O=C1N=C(NS(=O)(=O)c2ccc(-c3ccccc3)cc2)SC1=C1C(=O)Nc2ccc(Cl)cc21 [Compound 26] |  | inactive | 
CS(=O)(=O)NC1=NC(=O)C(=C2C(=O)Nc3ccc(Cl)cc32)S1 [Compound 29] | 36.2 ± 2.8 |  | 
O=C1N=C(NS(=O)(=O)c2ccc(C(F)(F)F)cc2)SC1=C1C(=O)Nc2ccc(Cl)cc21 [Compound 30] | 13.6 ± 3.6 |  | 
O=C1N=C(NS(=O)(=O)c2ccc3ccccc3c2)SC1=C1C(=O)Nc2ccc(Cl)cc21 [Compound 31] | 9.9 ± 1.3 |  | 
O=C1N=C(NS(=O)(=O)c2ccc(F)cc2)SC1=C1C(=O)Nc2ccc(Cl)cc21 [Compound 33] | 30.4 ± 10.5 |  | 
Cc1ccc(C(=O)NC2=NC(=O)C(=C3C(=O)Nc4ccc(Cl)cc43)S2)cc1 [Compound 34] |  | inactive | 
COc1ccc(C(=O)NC2=NC(=O)C(=C3C(=O)Nc4ccc(Cl)cc43)S2)cc1 [Compound 35] |  | inactive | 
COc1ccc(C(=O)NC2=NC(=O)C(=C3C(=O)Nc4ccc(Cl)cc43)S2)cc1OC [Compound 36] |  | inactive | 
O=C1N=C(NC(=O)c2ccc(F)cc2)SC1=C1C(=O)Nc2ccc(Cl)cc21 [Compound 37] |  | inactive | 
COc1ccc(S(=O)(=O)NC2=NC(=O)C(=C3C(=O)Nc4ccc(Cl)cc43)O2)cc1 [Compound 38] |  | inactive | inhibitory activity against METTL16 in the FP assay, in words ([1]; FAM-MAT2A-hp1 RNA): did not show inhibitory activity
CN1C(=O)C(=C2SC(NS(=O)(=O)c3ccc(C(=O)O)cc3)=NC2=O)c2cc([N+](=O)[O-])ccc21 [Compound 46] | 2 |  | inhibition of METTL16–GGACU RNA binding in EMSA, in words [2]: dose-dependently inhibited; covalent adduct formation with METTL16 (LC–MS) (METTL16 (1-291)): no such covalent adduct with a mass shift was observed; inhibition of the methyltransferase activity of METTL16 MTD, in words [3]: dose-dependently inhibited; also recorded: potent inhibitory activity; IC50 [4]: 2.8 µM; inhibition on colony formation, in words (MDA-MB-231 cells): did not show obvious inhibition on colony formation; IC50 under different SAM concentrations (FP assay), in words [5]: remained
COC(=O)c1ccc(S(=O)(=O)NC2=NC(=O)C(=C3C(=O)N(C)c4ccc(Br)cc43)S2)cc1 [Compound 48] | 29.4 ± 7.5 |  | fold decrease in inhibitory activity (FP assay) ([1]; 42 compared to compound 4, methyl ester 48 compared to the carboxylic acid analogue): 20 fold
CN1C(=O)C(=C2SC(NS(=O)(=O)c3cccc(C(=O)O)c3)=NC2=O)c2cc(Br)ccc21 [Compound 49] | 3 |  | IC50 [4]: 5.3 µM
O=C1CSC(NS(=O)(=O)c2ccccc2)=N1 [Compound Ia] | > 100 | inactive | 

From article PMC11040665, “Aminothiazolone Inhibitors Disrupt the Protein–RNA Interaction of METTL16 and Modulate the m^6A RNA Modification” (JACS Au, 2024)
